Assay results taken from patent US10259779B2 (WAYNE STATE UNIVERSITY, priority 2016, dated 2019).
One block for each compound: values may come before it.

Experiments:
[1] = target: HDAC3 (Homo sapiens, UniProt O15379); assay: ELISA-based HDAC activity assay, HDAC3
[2] = system: HDAC proteins in HeLa cell lysates; assay: Global HDAC inhibition with HeLa cell lysates (HDAC-Glo I/II substrate); format: biochemical; settings: for Deacetylase activity (%): Hela Lysate; for IC50: HeLa cell lysates
Procedure: HDAC activity was measured using the commercially available HDAC-Glo™ I/II substrate (Promega).
Lysates were prepared according to the reported procedure.^28 HeLa-S3 cells (purchased from Biovest) were lysed in lysis buffer (1×10^9 cells in 10 mL lysis buffer; 50 mM Tris-HCl, pH 8.0, 10% glycerol, 150 mM NaCl, 0.5% Triton X-100, and 1× protease inhibitor cocktail (GenDEPOT)) with rotation at 4° C. for 30 min. Cell debris was removed by centrifugation at 12000 rpm at 4° C. for 30 min. Protein concentration of the supernatant was determined using Bio-Rad protein assay (BioRad, Bradford reagent). Lysates were stored at −80° C.
To measure global HDAC inhibition, HeLa cell lysates (1 μg total protein) were mixed with HDAC-Glo™ buffer in polystyrene 96-well half area white plate (Corning) to a final volume of 12 μL, followed by addition of inhibitors in DMSO (0.5 μL) and incubation for 15 min at room temperature without rocking. An uninhibited control reaction was also included that contained DMSO (0.5 μL). Finally, deacetylase activity was measured using the HDAC-Glo™ assay kit (Promega) as per the manufacturer's protocol. Specifically, the HDAC-Glo™ substrate (1 mL) and developer ([…]) were first premixed to form the HDAC-Glo™ reagents. Then, to monitor deacetylase activity, HDAC-Glo™ reagent (5 μL) and HDAC-Glo™ buffer (7.5 μL) were added to each well (25 μL total volume) and incubated for 35 min at room temperature without rocking. The deacetylase activity was measured as luminescent signal using a GeniosPlus Fluorimeter (Tecan) at optimal gain. The concentrations of inhibitors reported in the dose-dependent studies (Table 2) are final concentrations after addition of HDAC-Glo™ reagent HDAC-Glo™ buffer.

[3] = target: HDAC2 (Homo sapiens, UniProt Q92769); assay: ELISA-based HDAC activity assay, HDAC2
Sequence of HDAC2 (Q92769 whole entry): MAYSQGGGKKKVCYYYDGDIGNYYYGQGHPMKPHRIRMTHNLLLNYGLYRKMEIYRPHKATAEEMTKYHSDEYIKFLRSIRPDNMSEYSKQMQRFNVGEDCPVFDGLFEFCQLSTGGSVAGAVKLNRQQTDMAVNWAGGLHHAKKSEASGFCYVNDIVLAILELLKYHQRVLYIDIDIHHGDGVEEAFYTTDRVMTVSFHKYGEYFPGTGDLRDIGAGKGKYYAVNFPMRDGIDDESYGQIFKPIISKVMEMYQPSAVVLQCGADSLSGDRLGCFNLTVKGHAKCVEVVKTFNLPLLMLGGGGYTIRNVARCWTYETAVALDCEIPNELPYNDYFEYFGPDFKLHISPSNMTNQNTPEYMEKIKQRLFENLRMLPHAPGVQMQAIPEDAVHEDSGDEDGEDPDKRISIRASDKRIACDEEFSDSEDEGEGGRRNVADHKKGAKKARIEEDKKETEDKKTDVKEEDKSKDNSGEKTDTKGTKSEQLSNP

[4] = target: HDAC1 (Homo sapiens, UniProt Q13547); assay: ELISA-based HDAC activity assay, HDAC1
Sequence of HDAC1 (Q13547 whole entry): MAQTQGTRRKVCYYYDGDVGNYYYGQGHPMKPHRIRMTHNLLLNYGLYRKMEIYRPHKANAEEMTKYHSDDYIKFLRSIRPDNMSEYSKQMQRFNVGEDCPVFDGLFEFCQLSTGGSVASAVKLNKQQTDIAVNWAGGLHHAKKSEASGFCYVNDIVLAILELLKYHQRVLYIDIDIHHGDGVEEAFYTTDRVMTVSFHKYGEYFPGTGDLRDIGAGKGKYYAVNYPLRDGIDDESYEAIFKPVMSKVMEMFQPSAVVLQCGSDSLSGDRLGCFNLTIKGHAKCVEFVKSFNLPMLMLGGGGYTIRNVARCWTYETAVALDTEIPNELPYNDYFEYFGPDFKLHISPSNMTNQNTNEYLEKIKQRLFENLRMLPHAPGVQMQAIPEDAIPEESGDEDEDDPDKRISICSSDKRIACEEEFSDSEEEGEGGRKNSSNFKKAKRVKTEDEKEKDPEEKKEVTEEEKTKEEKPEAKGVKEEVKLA

[5] = target: T1, recombinant HDAC8 (Homo sapiens, UniProt Q9BY41); assay: Recombinant HDAC8 inhibition (HDAC-Glo); format: biochemical; settings: for activity at 0.1 µM: 1.0 × 10^−7 M; for activity at 0.2 µM: 2.0 × 10^−7 M; for activity at […]: 2.5 × 10^−8 M; for activity at 0.05 µM: 5.0 × 10^−8 M; for HDAC8 fold selectivity HDAC1: HDAC8 over HDAC1; for HDAC8 fold selectivity HDAC1 / HDAC8 fold selectivity HDAC2 / HDAC8 fold selectivity HDAC3: calculated from IC50 values; for HDAC8 fold selectivity HDAC2: HDAC8 over HDAC2; for HDAC8 fold selectivity HDAC3: HDAC8 over HDAC3; for activity at 0.0125 µM: 1.25 × 10^−8 M; for fold selectivity for HDAC8 over HDAC1, 2, and 3: HDAC8 versus HDAC1, 2, 3
T1 construct: purchased BPS Bioscience
T1 sequence (Q9BY41 1-377): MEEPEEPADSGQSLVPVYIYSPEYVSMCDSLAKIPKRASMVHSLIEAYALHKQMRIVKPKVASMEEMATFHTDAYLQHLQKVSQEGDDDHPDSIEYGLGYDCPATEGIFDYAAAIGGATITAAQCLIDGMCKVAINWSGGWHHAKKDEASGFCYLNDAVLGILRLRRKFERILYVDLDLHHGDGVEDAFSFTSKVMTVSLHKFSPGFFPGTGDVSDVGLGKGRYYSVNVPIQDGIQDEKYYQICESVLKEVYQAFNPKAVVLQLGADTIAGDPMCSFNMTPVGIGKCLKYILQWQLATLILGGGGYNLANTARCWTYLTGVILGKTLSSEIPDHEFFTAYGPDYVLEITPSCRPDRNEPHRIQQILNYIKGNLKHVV
Procedure: Inhibitory activity with HDAC8 was measured using the following procedure. In a half area 96-well white opaque plate, recombinant HDAC8 (75 ng, BPS Bioscience) was incubated in HDAC-Glo™ buffer (39 μL) with inhibitor in DMSO (1 μL), or DMSO alone (1 μL) as a control, for 15 minutes at room temperature. HDAC-Glo™ reagent (10 μL) was added to each reaction and incubated for 30 min at room temperature. Luminescent signal was measured 30 minutes after adding the substrate reagent using a Geniosplus Fluorimeter (Tecan) at optimal gain. To determine IC50, the luminescent signal was first background corrected with the signal from a background control reaction where no HDAC8 enzyme was added.

[6] = read-out: Deacetylase activity (%) HDAC3
[7] = read-out: Deacetylase activity (%) HDAC2
[8] = potency (IC50) to HDAC1, 2, and 3, range over HDAC1, 2, and 3
[9] = read-out: Deacetylase activity (%) HDAC1
[10] = read-out: Deacetylase activity (%) HDAC8

Sequence of HDAC3 (O15379 whole entry): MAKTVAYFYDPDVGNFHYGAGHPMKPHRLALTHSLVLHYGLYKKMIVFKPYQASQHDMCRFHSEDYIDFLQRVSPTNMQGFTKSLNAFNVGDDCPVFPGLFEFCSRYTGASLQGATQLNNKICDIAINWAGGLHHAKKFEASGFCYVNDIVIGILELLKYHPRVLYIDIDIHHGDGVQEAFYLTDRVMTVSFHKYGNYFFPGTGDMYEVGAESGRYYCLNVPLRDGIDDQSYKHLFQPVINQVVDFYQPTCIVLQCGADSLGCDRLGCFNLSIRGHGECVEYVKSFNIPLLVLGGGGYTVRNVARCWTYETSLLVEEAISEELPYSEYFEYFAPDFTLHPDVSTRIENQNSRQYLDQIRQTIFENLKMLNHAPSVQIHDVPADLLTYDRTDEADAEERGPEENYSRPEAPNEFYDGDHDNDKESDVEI
Sequence of HDAC3 (Q9Y618 whole entry partner): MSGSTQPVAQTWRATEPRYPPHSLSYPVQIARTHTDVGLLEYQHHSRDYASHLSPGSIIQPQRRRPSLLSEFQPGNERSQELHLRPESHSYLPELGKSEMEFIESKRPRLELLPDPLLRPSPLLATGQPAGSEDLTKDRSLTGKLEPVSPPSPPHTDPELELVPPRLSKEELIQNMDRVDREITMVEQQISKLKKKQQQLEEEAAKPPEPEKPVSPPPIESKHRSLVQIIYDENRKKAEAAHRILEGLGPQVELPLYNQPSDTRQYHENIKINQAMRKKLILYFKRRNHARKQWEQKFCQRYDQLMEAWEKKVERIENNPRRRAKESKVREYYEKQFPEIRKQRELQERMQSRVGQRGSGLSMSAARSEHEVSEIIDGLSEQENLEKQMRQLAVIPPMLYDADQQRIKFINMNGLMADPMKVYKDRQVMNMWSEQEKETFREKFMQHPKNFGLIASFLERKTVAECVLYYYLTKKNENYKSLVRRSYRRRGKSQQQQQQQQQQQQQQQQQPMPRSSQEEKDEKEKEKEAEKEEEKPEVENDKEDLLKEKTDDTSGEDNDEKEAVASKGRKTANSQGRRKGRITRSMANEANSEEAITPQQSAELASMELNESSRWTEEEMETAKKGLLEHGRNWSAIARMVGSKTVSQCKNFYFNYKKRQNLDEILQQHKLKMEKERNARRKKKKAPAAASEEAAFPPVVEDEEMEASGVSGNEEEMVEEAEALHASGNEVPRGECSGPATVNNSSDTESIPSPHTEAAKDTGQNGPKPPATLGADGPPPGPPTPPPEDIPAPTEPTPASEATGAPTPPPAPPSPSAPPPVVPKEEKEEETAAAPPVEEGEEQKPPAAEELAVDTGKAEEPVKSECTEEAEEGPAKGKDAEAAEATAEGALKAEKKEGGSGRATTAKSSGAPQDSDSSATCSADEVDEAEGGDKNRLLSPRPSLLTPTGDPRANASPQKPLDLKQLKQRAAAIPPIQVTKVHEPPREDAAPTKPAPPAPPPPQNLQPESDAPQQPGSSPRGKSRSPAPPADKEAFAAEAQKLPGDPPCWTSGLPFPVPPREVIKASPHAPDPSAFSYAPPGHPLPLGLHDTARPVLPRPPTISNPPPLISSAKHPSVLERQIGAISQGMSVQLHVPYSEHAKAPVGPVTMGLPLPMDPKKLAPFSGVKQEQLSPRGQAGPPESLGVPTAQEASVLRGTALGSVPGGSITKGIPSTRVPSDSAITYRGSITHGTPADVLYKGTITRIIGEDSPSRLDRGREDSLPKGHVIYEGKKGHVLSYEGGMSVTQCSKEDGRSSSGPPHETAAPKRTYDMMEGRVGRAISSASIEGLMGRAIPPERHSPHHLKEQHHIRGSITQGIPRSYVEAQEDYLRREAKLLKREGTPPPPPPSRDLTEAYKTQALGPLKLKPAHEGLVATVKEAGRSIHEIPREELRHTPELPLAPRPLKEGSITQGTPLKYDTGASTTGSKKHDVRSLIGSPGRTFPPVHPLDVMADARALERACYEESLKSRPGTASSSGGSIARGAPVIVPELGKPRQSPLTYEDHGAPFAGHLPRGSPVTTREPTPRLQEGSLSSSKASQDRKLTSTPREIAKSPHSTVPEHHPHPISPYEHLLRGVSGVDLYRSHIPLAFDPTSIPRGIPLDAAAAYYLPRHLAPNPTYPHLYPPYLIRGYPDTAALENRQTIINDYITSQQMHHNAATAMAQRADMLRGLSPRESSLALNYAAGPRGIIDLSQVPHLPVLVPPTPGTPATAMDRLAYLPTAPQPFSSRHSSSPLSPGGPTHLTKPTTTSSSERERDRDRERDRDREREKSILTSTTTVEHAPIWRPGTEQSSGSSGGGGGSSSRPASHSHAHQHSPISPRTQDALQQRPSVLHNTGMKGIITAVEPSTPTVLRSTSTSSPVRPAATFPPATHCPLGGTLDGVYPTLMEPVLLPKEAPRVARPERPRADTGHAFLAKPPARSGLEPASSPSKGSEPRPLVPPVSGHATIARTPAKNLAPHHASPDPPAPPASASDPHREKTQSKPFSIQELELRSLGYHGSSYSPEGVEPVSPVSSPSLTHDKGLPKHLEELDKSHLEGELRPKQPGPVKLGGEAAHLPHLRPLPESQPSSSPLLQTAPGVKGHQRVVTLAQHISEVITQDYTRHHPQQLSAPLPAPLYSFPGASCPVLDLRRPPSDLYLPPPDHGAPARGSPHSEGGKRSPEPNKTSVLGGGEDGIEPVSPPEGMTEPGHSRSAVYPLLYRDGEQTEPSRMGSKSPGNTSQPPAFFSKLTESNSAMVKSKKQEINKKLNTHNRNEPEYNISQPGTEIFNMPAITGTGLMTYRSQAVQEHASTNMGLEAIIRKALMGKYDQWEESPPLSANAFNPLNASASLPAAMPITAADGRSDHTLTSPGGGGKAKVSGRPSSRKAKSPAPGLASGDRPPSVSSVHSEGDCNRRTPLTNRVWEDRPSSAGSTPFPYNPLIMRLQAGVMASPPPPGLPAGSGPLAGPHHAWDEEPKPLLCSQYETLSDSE

IC50 [1]: 6 µM
activity at 1 µM [1, 6]: 83 ± 7%
activity at 2 µM [1, 6]: 71 ± 4%
activity at 4 µM [1, 6]: 64 ± 2%
activity at 8 µM [1, 6]: 52 ± 6%
activity at 16 µM [1, 6]: 17 ± 8%
IC50 [2]: 14 ± 1 µM
IC50 [3]: 4.9 µM
activity at 1 µM [3, 7]: 86 ± 2%
activity at 2 µM [3, 7]: 69 ± 1%
activity at 4 µM [3, 7]: 59 ± 2%
activity at 8 µM [3, 7]: 34 ± 7%
activity at 16 µM [3, 7]: 23 ± 2%
IC50 ([4]; IC50 values (nM) HDAC1): 4400 nM
IC50 [4, 8]: 4400 to 6000 nM
activity at 1 µM [4, 9]: 81 ± 3%
activity at 2 µM [4, 9]: 68 ± 5%
activity at 4 µM [4, 9]: 58 ± 1%
activity at 8 µM [4, 9]: 32 ± 4%
activity at 16 µM [4, 9]: 19 ± 1%
IC50 [5]: 130 ± 3 nM
activity at 0.1 µM [5, 10]: 55 ± 2%
activity at 0.2 µM [5, 10]: 39 ± 1%
activity at […] [5, 10]: 83 ± 2%
activity at 0.4 µM ([5]; 4.0 × 10^−7 M, read-out: Deacetylase activity (%) HDAC8): 25 ± 1%
activity at 0.05 µM [5, 10]: 73 ± 2%
HDAC8 fold selectivity HDAC1 [5]: 34 fold
HDAC8 fold selectivity HDAC2 [5]: 38 fold
HDAC8 fold selectivity HDAC3 [5]: 46 fold
SMILES: CCC(CCCC(=O)Nc1ccccc1)CCC(=O)NO (racemic) [Compound 1b, 4-ethyl-N^1-hydroxy-N^8-phenyloctanediamide]
Deacetylase activity (%) ([2]; 2.4 × 10^−5 M): 31 ± 2%
Deacetylase activity (%) ([2]; 3.0 × 10^−6 M): 92 ± 1%
Deacetylase activity (%) ([2]; 4.8 × 10^−5 M): 12 ± 1%
Deacetylase activity (%) ([2]; 6.0 × 10^−6 M): 82 ± 7%
Deacetylase activity (%) ([2]; […] 10^−5 M): 53 ± 3%

IC50 [1]: 42 µM
activity at 5 µM [1, 6]: 90 ± 3%
activity at 10 µM [1, 6]: 87 ± 4%
activity at 20 µM [1, 6]: 63 ± 5%
activity at 40 µM [1, 6]: 55 ± 3%
activity at 80 µM [1, 6]: 33 ± 2%
activity at 160 µM [1, 6]: 19 ± 2%
IC50 [2]: 62 ± 1 µM
IC50 [3]: 32 µM
activity at 5 µM [3, 7]: 92 ± 4%
activity at 10 µM [3, 7]: 74 ± 4%
activity at 20 µM [3, 7]: 60 ± 1%
activity at 40 µM [3, 7]: 47 ± 1%
activity at 80 µM [3, 7]: 27 ± 5%
activity at 160 µM [3, 7]: 20 ± 1%
IC50 ([4]; potency (IC50) with HDAC1, text, Table 4 value in μM): 29000 nM
activity at 5 µM [4, 9]: 87 ± 4%
activity at 10 µM [4, 9]: 75 ± 5%
activity at 20 µM [4, 9]: 58 ± 5%
activity at 40 µM [4, 9]: 44 ± 2%
activity at 80 µM [4, 9]: 27 ± 2%
activity at 160 µM [4, 9]: 16 ± 1%
IC50 [5]: 57 nM
activity at 0.1 µM [5, 10]: 34 ± 2%
activity at 0.0125 µM [5, 10]: 87 ± 4%
activity at 0.2 µM [5, 10]: 21 ± 1%
activity at […] [5, 10]: 73 ± 2%
activity at 0.05 µM [5, 10]: 51 ± 1%
HDAC8 fold selectivity HDAC1 [5]: 510 fold
HDAC8 fold selectivity HDAC2 [5]: 670 fold
HDAC8 fold selectivity HDAC3 [5]: 740 fold
fold selectivity for HDAC8 over HDAC1, 2, and 3 [5]: ≥ 510 fold
SMILES: O=C(CCC(CCCC(=O)Nc1ccccc1)Cc1ccccc1)NO (racemic) [Compound 1f, 4-benzyl-N^1-hydroxy-N^8-phenyloctanediamide]
Deacetylase activity (%) ([2]; 1.0 × 10^−4 M): 35 ± 5%
Deacetylase activity (%) ([2]; 1.25 × 10^−5 M): 88 ± 4%
Deacetylase activity (%) ([2]; 2.0 × 10^−4 M): 19 ± 2%
Deacetylase activity (%) ([2]; 5.0 × 10^−5 M): 58 ± 4%
Deacetylase activity (%) ([2]; […] 10^−5 M): 74 ± 5%

IC50 [1]: 30 µM
activity at 1.25 µM [1, 6]: 100 ± 6%
activity at 10 µM [1, 6]: 88 ± 2%
activity at 20 µM [1, 6]: 56 ± 4%
activity at 40 µM [1, 6]: 42 ± 5%
activity at 80 µM [1, 6]: 25 ± 1%
activity at 160 µM [1, 6]: 5 ± 3%
IC50 [2]: 60 ± 1 µM
IC50 [3]: 38 µM
activity at 1.25 µM [3, 7]: 101 ± 2%
activity at 10 µM [3, 7]: 79 ± 6%
activity at 20 µM [3, 7]: 73 ± 2%
activity at 40 µM [3, 7]: 46 ± 6%
activity at 80 µM [3, 7]: 31 ± 2%
activity at 160 µM [3, 7]: 16 ± 1%
IC50 ([4]; IC50 values (nM) HDAC1): 35000 nM
IC50 [4, 8]: 30000 to 38000 nM
activity at 1.25 µM [4, 9]: 97 ± 3%
activity at 10 µM [4, 9]: 83 ± 4%
activity at 20 µM [4, 9]: 67 ± 4%
activity at 40 µM [4, 9]: 46 ± 1%
activity at 80 µM [4, 9]: 26 ± 2%
activity at 160 µM [4, 9]: 13 ± 1%
IC50 [5]: 79 ± 3 nM
activity at 0.1 µM [5, 10]: 42 ± 4%
activity at 0.0125 µM [5, 10]: 92 ± 1%
activity at 0.2 µM [5, 10]: 27 ± 2%
activity at […] [5, 10]: 78 ± 6%
activity at 0.05 µM [5, 10]: 63 ± 4%
HDAC8 fold selectivity HDAC1 [5]: 440 fold
HDAC8 fold selectivity HDAC2 [5]: 480 fold
HDAC8 fold selectivity HDAC3 [5]: 380 fold
fold selectivity for HDAC8 over HDAC1, 2, and 3 [5]: ≥ 380 fold
SMILES: CCCCCCC(CCCC(=O)Nc1ccccc1)CCC(=O)NO (racemic) [Compound 1d, 4-hexyl-N^1-hydroxy-N^8-phenyloctanediamide]
Deacetylase activity (%) ([2]; 1.0 × 10^−4 M): 35 ± 3%
Deacetylase activity (%) ([2]; 1.25 × 10^−5 M): 87 ± 1%
Deacetylase activity (%) ([2]; 2.0 × 10^−4 M): 21 ± 3%
Deacetylase activity (%) ([2]; 5.0 × 10^−5 M): 56 ± 2%
Deacetylase activity (%) ([2]; […] 10^−5 M): 73 ± 2%
